Data taken from ChEMBL document CHEMBL4219215, “Discovery of {4-[4,9-bis(ethyloxy)-1-oxo-1,3-dihydro-2H-benzo[f]isoindol-2-yl]-2-fluorophenyl}acetic acid (GSK726701A), a novel EP4 receptor partial agonist for the treatment of pain” (Bioorg Med Chem Lett, 2018).

Columns and labels:
[1] = Blood clearance in rat at 1 mg/kg, po; format: ADME, organism-based
Homo sapiens [2] = species on record: Homo sapiens; assay: Selectivity index, ratio of agonist activity at EP2 receptor (unknown origin) to pEC50 for partial agonist activity at human EP4 receptor expressed in HEK293-AEQ17 cells; format: cell-based
[3] = Intrinsic clearance in dog liver microsomes; format: ADME, Canis lupus familiaris, microsome
Cytochrome P450 2C9 = Cytochrome P450 2C9 (Homo sapiens, UniProt P11712); assay: Inhibition of human recombinant CYP2C9; format: ADME; conditions: human, recombinant enzyme
[4] = biological target: T1, Prostaglandin E2 receptor EP3 subtype (Homo sapiens, UniProt P43115); assay: Activity at EP3 receptor (unknown origin)
T1 sequence (P43115 whole entry): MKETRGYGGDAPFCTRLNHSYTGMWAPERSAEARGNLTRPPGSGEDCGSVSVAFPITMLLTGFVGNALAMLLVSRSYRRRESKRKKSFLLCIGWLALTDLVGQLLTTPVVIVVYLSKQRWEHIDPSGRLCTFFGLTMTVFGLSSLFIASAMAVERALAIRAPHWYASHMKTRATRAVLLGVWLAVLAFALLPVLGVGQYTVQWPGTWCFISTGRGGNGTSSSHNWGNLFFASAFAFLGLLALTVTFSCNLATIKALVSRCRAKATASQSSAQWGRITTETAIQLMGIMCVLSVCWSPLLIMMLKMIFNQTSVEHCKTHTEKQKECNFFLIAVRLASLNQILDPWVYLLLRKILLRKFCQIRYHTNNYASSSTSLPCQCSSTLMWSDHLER

Homo sapiens [5] = species on record: Homo sapiens; assay: Selectivity index, ratio of agonist activity at IP receptor (unknown origin) to pEC50 for partial agonist activity at human EP4 receptor expressed in HEK293-AEQ17 cells; format: cell-based
Rattus norvegicus [6] = assay: Analgesic activity in rat model of chronic constriction injury-induced neuropathic pain assessed as reversal of mechanical allodynia at 3 mg/kg dosed twice daily for 8 days; format: functional, organism-based; conditions: TDE = time-dependent effect
Cytochrome P450 3A4 [7] = biological target: T2, Cytochrome P450 3A4 (Homo sapiens, UniProt P08684); assay: Inhibition of human recombinant CYP3A4 using DEF substrate; format: ADME; conditions: human, recombinant enzyme
[8] = Oral bioavailability in dog; format: ADME, organism-based, Canis lupus familiaris; conditions: in vivo
Cytochrome P450 3A4 [9] = biological target: T2, Cytochrome P450 3A4; assay: Inhibition of human recombinant CYP3A4 using 7BQ substrate; format: ADME; conditions: human, recombinant enzyme
[10] = Half life in orally dosed dog; format: ADME, organism-based, Canis lupus familiaris; conditions: in vivo, po
Rattus norvegicus [11] = assay: Potency index, ratio of ED50 for CCI17474 to ED50 for test compound for analgesic activity in orally dosed rat model of Freund's complete adjuvant-induced acute inflammatory pain assessed as reversal of FCA-induced hypersensitivity; format: functional
Homo sapiens [12] = species on record: Homo sapiens; assay: Selectivity index, ratio of pIC50 for FP receptor (unknown origin) to pEC50 for partial agonist activity at human EP4 receptor expressed in HEK293-AEQ17 cells; format: cell-based
[13] = biological target: T3, Prostaglandin D2 receptor (Homo sapiens, UniProt Q13258); assay: Activity at DP1 receptor (unknown origin)
T3 sequence (Q13258 whole entry): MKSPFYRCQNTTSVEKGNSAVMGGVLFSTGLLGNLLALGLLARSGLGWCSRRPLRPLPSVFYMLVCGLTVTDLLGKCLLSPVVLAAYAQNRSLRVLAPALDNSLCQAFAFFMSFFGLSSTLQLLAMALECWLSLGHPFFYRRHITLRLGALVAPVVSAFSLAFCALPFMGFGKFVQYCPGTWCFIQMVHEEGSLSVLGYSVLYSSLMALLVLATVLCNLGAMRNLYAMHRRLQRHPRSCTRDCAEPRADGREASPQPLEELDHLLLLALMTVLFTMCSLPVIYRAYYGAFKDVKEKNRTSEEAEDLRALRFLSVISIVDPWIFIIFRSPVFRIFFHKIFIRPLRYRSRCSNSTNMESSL

[14] = Half life in rat at 1 mg/kg, po; format: ADME, organism-based; conditions: in vivo
Canis familiaris = assay: Blood clearance in orally dosed dog; format: ADME, organism-based, Canis lupus familiaris; conditions: in vivo, po
[15] = Protein binding in human plasma; format: ADME, cell-free; conditions: read-out: PPB
[16] = biological target: Prostacyclin receptor (Homo sapiens) (UniProt P43119); assay: Antagonist activity at IP receptor (unknown origin) assessed as inhibition of receptor activation at 1 uM; format: functional
[17] = Intrinsic clearance in human liver microsomes; format: ADME, microsome
[18] = biological target: Prostaglandin F2-alpha receptor (Homo sapiens, UniProt P43088); assay: Activity at FP receptor (unknown origin)
[19] = Oral bioavailability in rat at 1 mg/kg; format: ADME, organism-based; conditions: in vivo
[20] = biological target: Prostacyclin receptor (Homo sapiens) (UniProt P43119); assay: Agonist activity at IP receptor (unknown origin) assessed as induction of receptor activation at 1 uM; format: functional
Cytochrome P450 1A2 = biological target: T4, Cytochrome P450 1A2 (Homo sapiens, UniProt P05177); assay: Inhibition of human recombinant CYP1A2; format: ADME; conditions: human, recombinant enzyme
T4 sequence (P05177 whole entry): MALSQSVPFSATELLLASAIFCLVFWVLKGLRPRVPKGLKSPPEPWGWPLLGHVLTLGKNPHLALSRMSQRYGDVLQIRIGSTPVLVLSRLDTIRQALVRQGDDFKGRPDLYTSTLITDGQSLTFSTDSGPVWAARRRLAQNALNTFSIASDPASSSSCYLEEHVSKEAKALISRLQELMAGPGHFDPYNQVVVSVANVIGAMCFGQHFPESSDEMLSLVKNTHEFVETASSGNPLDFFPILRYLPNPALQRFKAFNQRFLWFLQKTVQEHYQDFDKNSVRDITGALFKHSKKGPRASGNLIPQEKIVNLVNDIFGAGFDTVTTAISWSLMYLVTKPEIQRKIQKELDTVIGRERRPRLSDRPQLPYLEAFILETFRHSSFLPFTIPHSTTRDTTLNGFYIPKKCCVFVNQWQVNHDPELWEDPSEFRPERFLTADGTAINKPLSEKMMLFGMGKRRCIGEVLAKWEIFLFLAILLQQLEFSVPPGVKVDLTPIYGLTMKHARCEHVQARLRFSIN

[21] = Oral bioavailability in cynomolgus monkey; format: ADME, organism-based, Macaca fascicularis; conditions: in vivo
Homo sapiens [22] = species on record: Homo sapiens; assay: Selectivity index, ratio of pIC50 for DP1 receptor (unknown origin) to pEC50 for partial agonist activity at human EP4 receptor expressed in HEK293-AEQ17 cells; format: cell-based
Homo sapiens [23] = species on record: Homo sapiens; assay: Selectivity index, ratio of antagonist activity at IP receptor (unknown origin) to pEC50 for partial agonist activity at human EP4 receptor expressed in HEK293-AEQ17 cells; format: cell-based
[24] = Protein binding in rat plasma; format: ADME, cell-free; conditions: read-out: PPB (converted)
[25] = Ratio of drug level in brain to blood in rat at 1 mg/kg, po; format: ADME, organism-based
Cynomolgus monkey = assay: Blood clearance in orally dosed cynomolgus monkey; format: ADME, organism-based, Macaca fascicularis; conditions: in vivo, po
Rattus norvegicus [26] = assay: Analgesic activity in rat model of chronic joint pain dosed twice daily for 5 days; format: functional; conditions: 120 h
Homo sapiens [27] = species on record: Homo sapiens; assay: Selectivity index, ratio of pIC50 for EP3 receptor (unknown origin) to pEC50 for partial agonist activity at human EP4 receptor expressed in HEK293-AEQ17 cells; format: cell-based
Cytochrome P450 2C19 = Cytochrome P450 2C19 (Homo sapiens, UniProt P33261); assay: Inhibition of human recombinant CYP2C19; format: ADME; conditions: human, recombinant enzyme
Rattus norvegicus [28] = assay: Analgesic activity in orally dosed rat model of Freund's complete adjuvant-induced acute inflammatory pain assessed as reversal of FCA-induced hypersensitivity; format: functional; conditions: po

Sequence of Prostacyclin receptor (Homo sapiens) (P43119 whole entry): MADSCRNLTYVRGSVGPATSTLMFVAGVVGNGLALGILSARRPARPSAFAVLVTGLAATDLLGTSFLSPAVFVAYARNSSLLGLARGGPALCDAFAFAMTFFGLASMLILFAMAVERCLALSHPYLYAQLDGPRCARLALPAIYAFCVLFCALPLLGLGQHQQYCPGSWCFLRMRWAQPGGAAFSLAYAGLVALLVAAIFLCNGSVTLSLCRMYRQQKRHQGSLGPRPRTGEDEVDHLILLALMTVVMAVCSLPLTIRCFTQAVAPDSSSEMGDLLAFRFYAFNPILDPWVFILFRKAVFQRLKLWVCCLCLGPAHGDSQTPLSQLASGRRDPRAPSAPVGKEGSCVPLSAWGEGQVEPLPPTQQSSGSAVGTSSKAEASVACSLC
T2 sequence (P08684 whole entry): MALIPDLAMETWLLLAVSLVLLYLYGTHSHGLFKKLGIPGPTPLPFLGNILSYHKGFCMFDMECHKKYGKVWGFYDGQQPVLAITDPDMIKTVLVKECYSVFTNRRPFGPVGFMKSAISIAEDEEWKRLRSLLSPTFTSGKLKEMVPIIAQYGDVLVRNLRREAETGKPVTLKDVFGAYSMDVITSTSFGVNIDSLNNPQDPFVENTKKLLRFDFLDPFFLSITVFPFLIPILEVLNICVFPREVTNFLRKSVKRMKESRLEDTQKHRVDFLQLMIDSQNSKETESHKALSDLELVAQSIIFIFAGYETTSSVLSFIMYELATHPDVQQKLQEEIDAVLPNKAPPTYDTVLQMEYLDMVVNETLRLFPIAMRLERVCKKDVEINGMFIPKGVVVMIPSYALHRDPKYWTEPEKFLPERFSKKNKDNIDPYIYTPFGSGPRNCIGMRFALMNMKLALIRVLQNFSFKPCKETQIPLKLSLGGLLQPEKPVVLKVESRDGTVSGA
Sequence of Cytochrome P450 2C19 (P33261 whole entry): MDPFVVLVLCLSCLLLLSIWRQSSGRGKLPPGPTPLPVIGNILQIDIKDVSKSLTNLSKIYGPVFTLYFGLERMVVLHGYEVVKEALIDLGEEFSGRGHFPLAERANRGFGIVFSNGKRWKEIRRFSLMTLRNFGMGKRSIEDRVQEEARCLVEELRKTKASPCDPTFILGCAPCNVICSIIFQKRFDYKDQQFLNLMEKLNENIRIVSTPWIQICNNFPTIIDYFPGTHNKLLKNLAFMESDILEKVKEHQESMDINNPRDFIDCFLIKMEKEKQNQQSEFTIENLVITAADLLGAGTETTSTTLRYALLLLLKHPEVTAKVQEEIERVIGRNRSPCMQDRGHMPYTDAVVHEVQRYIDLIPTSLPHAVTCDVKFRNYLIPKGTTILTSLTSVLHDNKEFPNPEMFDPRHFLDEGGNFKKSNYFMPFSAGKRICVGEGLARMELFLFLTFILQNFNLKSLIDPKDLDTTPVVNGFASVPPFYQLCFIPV
Sequence of Cytochrome P450 2C9 (P11712 whole entry): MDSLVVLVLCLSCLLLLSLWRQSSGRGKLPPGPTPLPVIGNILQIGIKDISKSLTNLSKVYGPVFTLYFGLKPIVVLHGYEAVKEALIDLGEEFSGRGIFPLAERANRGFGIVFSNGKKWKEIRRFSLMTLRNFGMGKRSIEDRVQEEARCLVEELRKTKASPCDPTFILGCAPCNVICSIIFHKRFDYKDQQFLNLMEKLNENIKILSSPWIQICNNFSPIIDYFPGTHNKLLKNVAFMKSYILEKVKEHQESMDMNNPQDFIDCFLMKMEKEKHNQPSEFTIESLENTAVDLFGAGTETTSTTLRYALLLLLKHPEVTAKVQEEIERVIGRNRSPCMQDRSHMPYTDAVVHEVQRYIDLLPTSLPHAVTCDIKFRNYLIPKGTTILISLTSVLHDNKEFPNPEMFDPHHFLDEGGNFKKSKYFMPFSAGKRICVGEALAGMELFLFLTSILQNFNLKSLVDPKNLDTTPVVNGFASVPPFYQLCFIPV
Sequence of Prostaglandin F2-alpha receptor (P43088 whole entry): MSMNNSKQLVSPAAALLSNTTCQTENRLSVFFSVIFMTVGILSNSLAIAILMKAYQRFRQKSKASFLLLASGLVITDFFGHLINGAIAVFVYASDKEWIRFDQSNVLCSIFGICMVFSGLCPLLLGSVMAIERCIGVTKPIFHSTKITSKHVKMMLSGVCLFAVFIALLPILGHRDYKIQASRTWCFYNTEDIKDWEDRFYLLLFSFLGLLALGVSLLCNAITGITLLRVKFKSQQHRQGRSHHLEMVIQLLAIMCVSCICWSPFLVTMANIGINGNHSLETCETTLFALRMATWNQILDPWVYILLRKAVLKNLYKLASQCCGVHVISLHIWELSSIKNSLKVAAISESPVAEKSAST

Which CL/F [1] does the source give for CCOc1c2c(c(OCC)c3ccccc13)C(=O)N(c1ccc(CC(=O)O)c(F)c1)C2 here?
The CL/F was 1 mL/min/kg.

And the Selectivity ratio (Homo sapiens [2])?
Its Selectivity ratio is over 100.

And the CLH [3]?
Its CLH is under 1 mL/min/g.

And the INH (Cytochrome P450 2C9)?
Its INH is over 100 µM.

What about the IC50 [4] of the same compound?
The IC50 was over 10 µM.

And the Selectivity ratio (Homo sapiens [5])?
The Selectivity ratio was over 100.

And the Activity (Rattus norvegicus [6])?
Its Activity is “Tde”.

What about the INH (Cytochrome P450 3A4 [7]) of the same compound?
Its INH is over 100 µM.

What about the bioavailability [8] of the same compound?
The bioavailability was 69%.

What about the INH (Cytochrome P450 3A4 [9]) of the same compound?
Its INH is over 100 µM.

And the half-life [10]?
The half-life was 8 h.

And the “Ratio ED50” value (Rattus norvegicus [11])?
Its value is over 10.

And the Selectivity ratio (Homo sapiens [12])?
Its Selectivity ratio is over 100.

And the IC50 [13]?
The IC50 was over 31.6 µM.

What about the half-life [14] of the same compound?
Its half-life is 6 h.

What about the clearance (Canis familiaris) of the same compound?
The clearance was 4 mL/min/kg.

What about the fraction unbound [15] of the same compound?
Its fraction unbound is 0.001.

And the inhibition [16]?
Its inhibition is 31%.

And the CLH [17]?
Its CLH is under 1 mL/min/g.

And the IC50 [18]?
The IC50 was over 10 µM.

And the bioavailability [19]?
Its bioavailability is 112%.

What about the Activity [20] of the same compound?
Its Activity is 11%.

What about the INH (Cytochrome P450 1A2) of the same compound?
The INH was over 100 µM.

And the bioavailability [21]?
Its bioavailability is 50%.

What about the Selectivity ratio (Homo sapiens [22]) of the same compound?
Its Selectivity ratio is over 100.

And the Selectivity ratio (Homo sapiens [23])?
Its Selectivity ratio is over 100.

And the fraction unbound [24]?
Its fraction unbound is 0.002.

And the Kp [25]?
Its Kp is under 0.05.

And the clearance (Cynomolgus monkey)?
The clearance was 4 mL/min/kg.

And the ED50 (Rattus norvegicus [26])?
The ED50 was 0.23 mg/kg.

What about the Selectivity ratio (Homo sapiens [27]) of the same compound?
The Selectivity ratio was over 100.

And the INH (Cytochrome P450 2C19)?
The INH was over 100 µM.

And the ED50 (Rattus norvegicus [28])?
The ED50 was 0.2 to 0.22 mg/kg.
